Patent US6794416B2, “Methods, compositions and modes of delivery for the treatment of emphysema using 13-cis-retinoic acid” (Syntex (U.S.A.) LLC, priority 2000, dated 2004)
Read-outs that look alike come from different tables or passages of the source. Marks after values point to notes of the source that are not given here.

Assays:
[1] = parameters: species or system male Sprague Dawley rats; settings: rat, in vivo, po
Procedure: (§1) Animals treated with ATRA and 13-cis-retinoic acid prepared in Capmul at the dosage ranges enumerated in Table 6 were dosed orally once per day starting 21 days post injury. Control groups were challenged with elastase and 21 days later were treated with vehicle (Capmul solution) for 14 days. Animals were sacrificed 24 hours after the last dose by exsanguination under deep anesthesia. Blood was collected at time of exsanguination for analysis.
Quantitation of triglycerides contained in rat plasma was performed using established procedures in a contact clinical laboratory facility. Briefly, plasma triglycerides were converted to dihdroxyacetone and hydrogen peroxide by sequential treatment of plasma with lipase and glycerokinase according directions described by the manufacturer of triglycerides/GPO kit (Boehringer Mannheim #1488872). Hydrogen peroxide was quantitated colorimetrically in a Hitachi 911 Chemistry Analyzer. In rats normal triglyceride levels are between about 75 mg/dl and about 175 mg/dl.
Triglyceride values are a convenient measure of toxicity. […] Furthermore, at every dosage level tested, the triglyceride levels observed with 13-cis-retinoic acid were lower than that observed for ATRA.

[2] = tested on: rat model of elastase-induced emphysema; assay: alveolar repair in the rat model of elastase-induced emphysema; type: in vivo, male Sprague Dawley rats; settings: for % Alveolar Repair: starting 21 days post elastase injury, relative to elastase + vehicle
Procedure: All-trans retinoic acid (ATRA) and 13-cis-retinoic acid were evaluated for their effects on alveolar repair in the rat model of elastase-induced emphysema (Massaro et al., Nature, 1997, Vol. 3, No. 6:675; Massaro et al., U.S. Pat. No. 5,998,486). Animals were divided into treatment groups of approximately eight. Lung inflammation and alveolar damage was induced in male Sprague Dawley rats by a single instillation of about 2 U/gram body mass of pancreatic elastase (porcine derived, Calbiochem).
as §1
The lungs were inflated with 10% neutral buffered formalin by intratracheal instillation at a constant rate (1 ml/gram body mass/min). The lung was excised and immersed in fixative for 24 hours prior to processing. Alveolar measurements were made in four regions of the lung/rat. The mean value/treatment group was determined by summing the average area/rat for all eight rats relative to the elastase+ vehicle treated group. […] Standard methods were used to prepare 5 μm paraffin sections. Sections were stained with Hematoxylin and Eosin. Computerized Morphometric analysis was performed to determine the average alveolar size and alveolar number.

[3] = oral dose 0.1 mg/kg once per day
[4] = oral dose 1.0 mg/kg once per day
[5] = oral dose 10.0 mg/kg once per day

Triglyceride ([1]; 0.001 mg/kg) [mg/dL]	Triglyceride ([1]; 0.01 mg/kg) [mg/dL]	Triglyceride ([1]; 0.1 mg/kg) [mg/dL]	Triglyceride ([1]; 1 mg/kg) [mg/dL]	Triglyceride ([1]; 10 mg/kg) [mg/dL]	Triglyceride ([1]; 0.3 mg/kg) [mg/dL]	Triglyceride ([1]; 3 mg/kg) [mg/dL]	Structure (SMILES)	statistical significance of alveolar repair relative to elastase treated control ([2]; dosage of 0.001 mg/kg)	statistical significance of alveolar repair relative to elastase treated control ([2]; dosage range from 10.0 mg/kg to as low as 0.01 mg/kg)	% Alveolar Repair ([2]; oral dose 0.001 mg/kg once per day)	% Alveolar Repair ([2]; oral dose 0.01 mg/kg once per day) [%]	% Alveolar Repair [2, 3]	% Alveolar Repair [2, 4] [%]	% Alveolar Repair [2, 5] [%]	statistical significance of alveolar repair relative to elastase treated control ([2]; dosages below 0.3 mg/kg)	% Alveolar Repair ([2]; oral dose 0.3 mg/kg once per day)	% Alveolar Repair ([2]; oral dose 3.0 mg/kg once per day) [%]
125	73	82	128	147			CC1=C(/C=C/C(C)=C/C=C/C(C)=C\C(=O)O)C(C)(C)CCC1 [13-cis-retinoic acid, (13Z)-retinoic acid]	statistically insignificant	statistically significant	12* %	38	30%	45	56			
		152	175	378	149	307	CC1=C(/C=C/C(C)=C/C=C/C(C)=C/C(=O)O)C(C)(C)CCC1 [ATRA, All-trans retinoic acid]					8.8* %	45	53	not statistically significant	30* %	47
